Like-named read-outs stand apart in the source and are kept apart here.
Columns and labels:
SREBP = assay: Reporter Screening Assay (SRE-luciferase reporter, HepG2); type: cell-based; details: SREBPv1 Reporter cell line HepG2, 24 hours, 0.01 uM to 10 uM, read-out: I: Reporter Screening Assay (Ave EC50 (nM))
Description: Reporter Screening Assay: This assay was used to evaluate the effect on transcriptional activity SREBP of selected compounds using an SRE-luciferase reporter construct. On day 1, 10,000 cells were seeded in a 96 well (white) plate as per the plate map in Growth media without antibiotics. Cells were incubated at 37° C. for 8 hours. After 8 hours, cells were washed with DPBS for complete removal of FBS. DPBS was completely removed and Growth media was replaced with phenol free treatment medium (90 μl) with different FBS concentrations. The cells were then incubated at 37° C. for 24 hours with varying doses (0.01 uM to 10 uM) of compounds. Then a Luciferase assay was performed.
Reagents for performing Luciferase assay were stored at −20° C. To a tube of lyophilized assay substrate was added 1 mL Substrate Solvent and mixed well. The Substrate tube after reconstitution was covered with aluminum foil so as to keep it protected from light. The assay buffer was thawed to room temperature. To 20 mL Assay Buffer was added 200 µL of reconstituted 100× Substrate and mixed well. The reconstituted substrate as well as the assay solution (buffer + substrate) was protected from light throughout the procedure by keeping it covered with aluminum foil. Using a multi-channel pipette, 100 μL Assay Solution (buffer + substrate) was added directly to each sample well in Plate 1, which was incubated for 30 min (plate was covered with aluminum foil). After 30 min incubation, the plate was read for total luminescence. Each well was read for 2 seconds in a plate luminometer. (Microplate reader Envision Microplate reader from Perkin Elmer). Precaution was taken to incubate plate exactly for 30 min prior to reading on the plate reader.
Reporter Assay Materials: SREBPv1 Reporter cell line: HepG2-#32251. Growth Medium: MEM (Corning 10-010), 10% FBS, 1% GlutaMax (Invitrogen Catalog #35050061), […] (Invitrogen Catalog #A1113803) and 1% Penicillin-Streptomycin (Pen-Strep). Treatment Media: Phenol-free MEM (Invitrogen Catalog #51200-038) and 1% GlutaMax (Invitrogen Catalog #35050061). Luciferase Assay: LightSwitch Luciferase Assay Kit (Catalog #32032). LDH assay: Pierce LDH Cytotoxicity Assay Kit (Catalog #SD249616).

[1] = Stability in mouse liver microsomes; type: in vitro ADME
Description: (§1) Half-life Human Microsomes: Compounds were evaluated for stability in human liver microsomes. A 10 mM stock solution of the compound being evaluated was prepared in DMSO and diluted with water:acetonitrile (1:1) to a concentration of 1 mM. A working concentration of 100 μM was prepared by further dilution with water:acetonitrile (1:1). To make the preincubation mixture, 2.5 μL of the diluted compound was combined with 75 μL of human liver microsomes at 3.33 mg/mL, and 85 μL of 100 mM potassium phosphate buffer, and this mixture was pre-incubated for 10 min at 37° C. To make the 60 minute mixture without cofactor, 32.5 μL of the preincubation mixture was combined with 17.5 μL of 100 mM potassium phosphate buffer and incubated for 60 min at 37° C. To make the 0 min sample with cofactor (NADPH), 16.25 μL of the preincubation mixture was combined with 200 μL of acetonitrile containing internal standard and 8.75 μL of cofactor (NADPH). To make the incubation mixture, 62 μL of cofactor (2.85 mM) was combined with the remaining incubation mixture, and incubated for 60 min at 37° C. To prepare the sample mixture to be evaluated, 25 μL incubation mixture was combined with 200 μL of acetonitrile containing internal standard and vortexed for 5 min at 1200 rpm, then centrifuged for 10 min at 4000 rpm. The supernatant was diluted 2 fold with water and injected on LC-MS/MS. The sample mixture was evaluated by LC-MS/MS using 10 mM ammonium acetate with 0.1% FA as the aqueous mobile phase, and methanol as the organic mobile phase.
Half-life Mouse Microsomes: Compounds were evaluated in mouse liver microsomes following a similar procedure as described above for human liver microsomes. A similar procedure could be used to evaluate compounds in rat liver microsomes.

ACACA = assay: Gene expression in HepG2 cells (qPCR), ACACA; type: cell-based; details: for 48 hours, normalized to β-Actin, relative to mock or vehicle treated cells (ΔΔCT)
Description: Gene Expression: The effect of selected compounds on the gene expression of HepG2 cells was evaluated. HepG2 cells (P2) were seeded in 24 well plate (80,000 cells/well) for RNA extraction and in a 96 well plate (10,000 cells/well) for Cell Titer Glow (CTG). The media used was DMEM and contained 10% FBS. Each compound was evaluated at […] for 48 hours. Two biological replicates per experimental group were evaluated for RNA. For gene analysis, RNA was harvested with RNEasy kit and 20-100 ng used to synthesize cDNA with random primers. Quantitative PCR was performed on 1 pg to 100 ng cDNA for the following genes: ACACA, ACLY, FASN, LSS, PNPLA3. Gene expression levels were normalized with housekeeping gene, β-Actin, and relative expression levels determined using ΔΔCT method comparing treated to mock or vehicle treated cells as a baseline. “Total” gene expression refers to the average of the values of the 5 genes listed above.

[2] = Stability in human liver microsomes; type: in vitro ADME; details: 60 min at 37° C., NADPH
Description: as §1

Row | SMILES | EC50 (SREBP; Homo sapiens) [nM] | percent remaining after 60 min in mouse liver microsomes [1] | A: ACACA, effect of compounds on gene expression of HepG2 cells (ACACA) | percent remaining after 60 min in human liver microsomes [2] | EC50 (SREBP) [nM]
1 | O=C(c1ccc(-c2cc(-c3ccnc4c3OCC(CO)O4)cs2)c(Cl)c1)N1CCC(O)CC1 (racemic) [Compound I-1629181, (3-chloro-4-(4-(3-(hydroxymethyl)-2,3-dihydro-[1,4]dioxino[2,3-b]pyridin-8-yl)thiophen-2-yl)phenyl)(4-hydroxypiperidin-1-yl)methanone] | < 249 | – | – | – | –
2 | O=C(c1ccc(-c2cc(-c3ccnc(C4CCOCC4)c3)cs2)c(Cl)c1)N1CCC(O)CC1 [Compound I-1628752, (3-chloro-4-(4-(2-(tetrahydro-2H-pyran-4-yl)pyridin-4-yl)thiophen-2-yl)phenyl)(4-hydroxypiperidin-1-yl)methanone] | > 500 | +++ (≥60.1 = +++) | + (>0.751 = +) | + (0-30 = +) | –
3 | O=C(c1ccc(-c2cc(-c3ccnc(C4CCOC4)c3)cs2)c(Cl)c1)N1CCC(O)CC1 (centres unmarked) [Compound I-1628763, (3-chloro-4-(4-(2-(tetrahydrofuran-3-yl)pyridin-4-yl)thiophen-2-yl)phenyl)(4-hydroxypiperidin-1-yl)methanone] | < 249 | +++ (≥60.1 = +++) | ++ (0.31-0.7509 = ++) | + (0-30 = +) | –
4 | O=C(c1ccc(-c2cc(-c3ccnc(C4CCCO4)c3)cs2)c(Cl)c1)N1CCC(O)CC1 (centres unmarked) [Compound I-1628777, (3-chloro-4-(4-(2-(tetrahydrofuran-2-yl)pyridin-4-yl)thiophen-2-yl)phenyl)(4-hydroxypiperidin-1-yl)methanone] | 250 to 500 | +++ (≥60.1 = +++) | ++ (0.31-0.7509 = ++) | + (0-30 = +) | –
5 | O=C(c1ccc(-c2cc(-c3ccnc(C4(CO)CC4)c3)cs2)c(Cl)c1)N1CCC(O)CC1 [Compound I-1628961, (3-chloro-4-(4-(2-(1-(hydroxymethyl)cyclopropyl)pyridin-4-yl)thiophen-2-yl)phenyl)(4-hydroxypiperidin-1-yl)methanone] | < 249 | +++ (≥60.1 = +++) | ++ (0.31-0.7509 = ++) | +++ (≥60.1 = +++) | –
6 | O=C(c1ccc(-c2cc(-c3ccnc(C4(CO)CCC4)c3)cs2)c(Cl)c1)N1CCC(O)CC1 [Compound I-1629089, (3-chloro-4-(4-(2-(1-(hydroxymethyl)cyclobutyl)pyridin-4-yl)thiophen-2-yl)phenyl)(4-hydroxypiperidin-1-yl)methanone] | > 500 | +++ (≥60.1 = +++) | – | + (0-30 = +) | –
7 | O=C(c1ccc(-c2cc(-c3ccnc(OC4COC4)c3)cs2)c(Cl)c1)N1CCC(O)CC1 [Compound I-1629100, (3-chloro-4-(4-(2-(oxetan-3-yloxy)pyridin-4-yl)thiophen-2-yl)phenyl)(4-hydroxypiperidin-1-yl)methanone] | > 500 | +++ (≥60.1 = +++) | – | +++ (≥60.1 = +++) | –
8 | CC(C)(O)COc1cc(-c2csc(-c3ccc(C(=O)N4CCC(O)CC4)cc3Cl)c2)ccn1 [Compound I-1629101, (3-chloro-4-(4-(2-(2-hydroxy-2-methylpropoxy)pyridin-4-yl)thiophen-2-yl)phenyl)(4-hydroxypiperidin-1-yl)methanone] | > 500 | +++ (≥60.1 = +++) | – | +++ (≥60.1 = +++) | –
9 | O=C(c1ccc(-c2cc(-c3ccnc(O[C@@H]4CO[C@H]5[C@@H]4OC[C@H]5O)c3)cs2)c(Cl)c1)N1CCC(O)CC1 [Compound I-1629106, (3-chloro-4-(4-(2-(((3R,3aR,6R,6aR)-6-hydroxyhexahydrofuro [3,2-b]furan-3-yl)oxy)pyridin-4-yl)thiophen-2-yl)phenyl)(4-hydroxypiperidin-1-yl)methanone] | < 249 | +++ (≥60.1 = +++) | – | +++ (≥60.1 = +++) | –
10 | O=C(c1ccc(-c2cc(-c3ccnc(OC4CC(CO)C4)c3)cs2)c(Cl)c1)N1CCC(O)CC1 (centres unmarked) [Compound I-1629110, (3-chloro-4-(4-(2-(3-(hydroxymethyl)cyclobutoxy)pyridin-4-yl)thiophen-2-yl)phenyl)(4-hydroxypiperidin-1-yl)methanone] | < 249 | +++ (≥60.1 = +++) | – | +++ (≥60.1 = +++) | –
11 | O=C(c1ccc(-c2cc(-c3ccnc(OCC4CC(O)C4)c3)cs2)c(Cl)c1)N1CCC(O)CC1 (centres unmarked) [Compound I-1629118, (3-chloro-4-(4-(2-((3-hydroxycyclobutyl)methoxy)pyridin-4-yl)thiophen-2-yl)phenyl)(4-hydroxypiperidin-1-yl)methanone] | < 249 | +++ (≥60.1 = +++) | – | +++ (≥60.1 = +++) | –
12 | O=C(c1ccc(-c2cc(-c3ccnc(C4(CO)CC4)c3)cs2)c(Cl)c1)N1CC[C@H](O)[C@@H](F)C1 [Compound I-1629121, (3-chloro-4-(4-(2-(l-(hydroxymethyl)cyclopropyl)pyridin-4-yl)thiophen-2-yl)phenyl)((3S,4S)-3-fluoro-4-hydroxypiperidin-1-yl)methanone] | < 249 | +++ (≥60.1 = +++) | – | – | –
13 | CC(C)[C@H](N)C(=O)OC1CCN(C(=O)c2ccc(-c3cc(-c4ccnc(C5(CO)CC5)c4)cs3)c(Cl)c2)CC1 [Compound I-1629122, 1-(3-chloro-4-(4-(2-(1-(hydroxymethyl)cyclopropyl)pyridin-4-yl)thiophen-2-yl)benzoyl)piperidin-4-yl L-valinate] | < 249 | – | – | – | –
14 | CC(C)[C@H](N)C(=O)OCC1(c2cc(-c3csc(-c4ccc(C(=O)N5CCC(O)CC5)cc4Cl)c3)ccn2)CC1 [Compound I-1629123, (l-(4-(5-(2-chloro-4-(4-hydroxypiperidine-1-carbonyl)phenyl)thiophen-3-yl)pyridin-2-yl)cyclopropyl)methyl L-valinate] | – | – | – | – | < 249
15 | O=C(c1ccc(-c2cc(-c3ccnc(OC4CC(O)C4)c3)cs2)c(Cl)c1)N1CCC(O)CC1 (centres unmarked) [Compound I-1629124, (3-chloro-4-(4-(2-(3-hydroxycyclobutoxy)pyridin-4-yl)thiophen-2-yl)phenyl)(4-hydroxypiperidin-1-yl)methanone] | < 249 | +++ (≥60.1 = +++) | – | – | –

Reference: patent US20230147993A1, “THIOPHENE COMPOUNDS WITH CYCLIC AMIDES, AND USES THEREOF” (Capulus Therapeutics, LLC, priority 2019, published 2023)
